Assay: Test strip by competition with hydrolysed cefotaxime added to the sample
Format: binding
Details: signal equivalent to the control
Procedure: The optimisation of these two parameters was carried out for the five antibodies selected. […] In parallel, hydrolysed cefotaxime was added in order to check that the antibody is indeed specific to the non-hydrolysed form.
For all these three parameters, a colour intensity scale was used to evaluate the results obtained on the test strips. This scale was defined from 1 to 10, where each value is characteristic of an increasing signal intensity.
96-well microplates were used for all these tests. […] Then, a strip composed of a sample paper, a nitrocellulose membrane and an absorbent paper, were deposited in the wells. An incubation of 10 minutes was performed, then the signal intensity was evaluated with the colour intensity scale.
A control was produced (condition at 0 ng/ml), in order to see the maximum signal that could be obtained on the TL (Table 4).
By way of example, other antibodies have been tested. The conditions of use of the antibodies are as follows: Antibody 1, DO0.5, 0.3 mg/ml of BSA-cefotaxime; Antibody 2, DO1, 0.3 mg/ml of BSA-cefotaxime; Antibody 3, DO0.5, 0.1 mg/ml of BSA-cefotaxime; Antibody 4, DO0.5, 0.3 mg/ml of BSA-cefotaxime; Antibody 5, DO0.5, 0.3 mg/ml of BSA-cefotaxime (Table 5).

SMILES: CO/N=C(\C(=O)N[C@H](C(=O)O)C1NC(C(=O)O)=C(COC(C)=O)CS1)c1csc(N)n1 (stereo partly shown) [hydrolysed cefotaxime]
- recognition by the tracer antibody: not recognised

Source: US20240110220A1, “DETECTING BETA-LACTAMASE ENZYME ACTIVITY” (COMMISSARIAT A L'ENERGIE ATOMIQUE ET AUX ENERGIES …, priority 2021, published 2024)
